US7442703B2, “Piperidine derivatives useful as CCR5 antagonists” (priority 2001, dated 2008)
Where two headings read alike, the source gives them in different places.

System: HIV-1 luciferase reporter virus in U87-CD4-CCR5 cells
Assay: HIV Replication (luciferase) assay
Type: cell-based
Protocol: Luciferase Replication Assay:
Plasmids encoding the full length genome of HIV-1 pNL-4-Luc with the gp120 V-3 loop replaced by the Bgl II fragment of HIV-1 ADA, YU-2 or HxB (ADA-Luc-FL, YU-2-Luc-FL and HxB-Luc-FL) are obtained from Dr. Susan Pontow (Washington University, St. Louis Mo.). Replication-competent luciferase reporter virus stocks are generated by transfection of plasmids into 293T cells using Superfect (Qiagen) or Mirus transfection reagents. Viral stocks are collected 48 hours following transfection and titered for luciferase production on U-87-CCR5 or CXCR4 cells. U87-CD4-CCR5 cells (10^4/well) are plated in 96-well cell culture plates and incubated overnight. Media is removed and replaced with 50 μl of fresh culture media (DMEM, 10% FCS) and 50 μl of compound diluted in culture medium. Cells are incubated with compound at 37° C. for 1 hour. The resultant supernatant is removed and replaced with 20 μl of media containing compound and infected with an equal volume of diluted or undiluted virus stock at 37° C. for 3-4 hours. The cells are washed once with DMEM, and 200 μl of media containing compound is added. The cultures are incubated for 3 days, the cells lysed in luciferase lysis buffer (Promega, Madison, Wis.) and transferred to Immulon plates (Dynex Technologies, Chantilly Va.). An equal volume of luciferase substrate (Promega, Madison Wis.) is added to lysates and the plates read immediately in a Wallac Luminometer. Fifty and ninety percent inhibitory concentrations are determined using GraphPad PRISM software.

[1] = Human immunodeficiency virus 1, U87/CD4/CCR5, read-out: HIV Replication (luciferase) IC50
[2] = Human immunodeficiency virus 1, U87/CD4/CCR5

With Cc1ncnc(C)c1C(=O)N1CCC(C)(N2CCC(N(Cc3ccccn3)c3ccccc3)CC2)CC1 [Compound 90] the IC50 [1] was 3.4 nM.

In the case of Cc1ncnc(C)c1C(=O)N1CCC(C)(N2CCC(N(Cc3ccccc3)c3ccc(F)c(Cl)c3)CC2)CC1 [Compound 27], the IC50 [1] is reported as 0.1 nM.

In the case of Cc1ncnc(C)c1C(=O)N1CCC(C)(N2CCC(N(c3ccccc3)c3ccc(OC(F)(F)F)cc3)CC2)CC1 [Compound 70], the IC50 [1] is reported as 1 nM.

Compound Cc1ncnc(C)c1C(=O)N1CCC(C)(N2CCC(N(Cc3ccccc3)C3CCN(S(C)(=O)=O)CC3)CC2)CC1 [Compound 2] has an IC50 [1] of 0.8 nM.

Cc1ncnc(C)c1C(=O)N1CCC(C)(N2CCC(N(c3ccccc3)c3ccccc3F)CC2)CC1 [Compound 104] gave an IC50 [1] of 3 nM.

In the case of Cc1ncnc(C)c1C(=O)N1CCC(C)(N2CCC(N(Cc3ccccc3)c3cccc(C(=O)Nc4ccccc4)c3)CC2)CC1 [Compound 65], the IC50 [1] is reported as 2 nM.

For CCOc1ccc(N(c2ccccc2)C2CCN(C3(C)CCN(C(=O)c4c(C)ncnc4C)CC3)CC2)cc1 [Compound 99], the IC50 [1] was 0.3 nM.

In the case of CCc1ccc(N(Cc2ccccc2)C2CCN(C3(C)CCN(C(=O)c4c(C)ncnc4C)CC3)CC2)cc1 [Compound 41], the IC50 [1] is reported as under 0.1 nM.

For Cc1ncnc(C)c1C(=O)N1CCC(C)(N2CCC(N(Cc3ccccc3)c3ccc(C(F)(F)F)cc3)CC2)CC1 [Compound 10], the IC50 [1] was 0.5 nM.

Compound Cc1ncnc(C)c1C(=O)N1CCC(C)(N2CCC(N(CCc3ccccc3)c3ccccc3)CC2)CC1 [Compound 75] has an IC50 [1] of 38 nM.

For Cc1ncnc(C)c1C(=O)N1CCC(C)(N2CCC(N(Cc3ccccc3)c3ccc(I)cc3)CC2)CC1 [Compound 23], the IC50 [1] was 0.1 nM.

Cc1ncnc(C)c1C(=O)N1CCC(C)(N2CCC(N(Cc3cccnc3)c3ccccc3)CC2)CC1 [Compound 80] gave an IC50 [1] of 2 nM.

For Cc1ncnc(C)c1C(=O)N1CCC(C)(N2CCC(N(Cc3ccccc3)c3ccc(CCNS(=O)(=O)C4CC4)cc3)CC2)CC1 [Compound 56], the IC50 [1] was 0.2 nM.

For Cc1cc(-c2cc[n+]([O-])cc2)cc(C)c1C(=O)N1CCC(C)(N2CCC(N(c3ccccc3)c3ccc(OC(F)(F)F)cc3)CC2)CC1 [Compound 81], the IC50 [1] was 3 nM.

Compound Cc1ncnc(C)c1C(=O)N1CCC(C)(N2CCC(N(Cc3ccccc3)c3cccc(Cl)c3)CC2)CC1 [Compound 18] has an IC50 [1] of 0.1 nM.

Compound Cc1ncnc(C)c1C(=O)N1CCC(C)(N2CCC(N(c3ccccc3)c3ccc(Br)cn3)CC2)CC1 [Compound 71] has an IC50 [1] of 0.6 nM.

With Cc1ncnc(C)c1C(=O)N1CCC(C)(N2CCC(N(Cc3ccccc3)C3CCN(S(=O)(=O)c4ccc(Cl)cc4)CC3)CC2)CC1 [Compound 6] the IC50 [1] was 0.9 nM.

Work on Cc1cc(N(Cc2ccccc2)C2CCN(C3(C)CCN(C(=O)c4c(C)ncnc4C)CC3)CC2)ccc1Br [Compound 28] yielded an IC50 [1] of 0.22 nM.

Work on Cc1ncnc(C)c1C(=O)N1CCC(C)(N2CCC(N(Cc3ccccc3)c3ccc(F)cc3)CC2)CC1 [Compound 14] yielded an IC50 [1] of 0.1 nM.

Cc1ncnc(C)c1C(=O)N1CCC(C)(N2CCC(N(c3ccccc3)c3cccc(F)c3)CC2)CC1 [Compound 93] gave an IC50 [1] of 0.21 nM.

With Cc1ncnc(C)c1C(=O)N1CCC(C)(N2CCC(N(Cc3ccccc3)c3cccc(C(=O)O)c3)CC2)CC1 [Compound 59] the IC50 [1] was 4 nM.

With Cc1ncnc(C)c1C(=O)N1CCC(C)(N2CCC(N(Cc3ccccc3)c3cccc(F)c3)CC2)CC1 [Compound 31] the IC50 [1] was 0.44 nM.

Cc1ncnc(C)c1C(=O)N1CCC(C)(N2CCC(N(Cc3ccccc3)c3ccc(C(C)C)cc3)CC2)CC1 [Compound 22] was tested, and the IC50 [1] was 0.2 nM.

Work on Cc1ncnc(C)c1C(=O)N1CCC(C)(N2CCC(N(CC3CC3)c3ccccc3)CC2)CC1 [Compound 74] yielded an IC50 [1] of 10 nM.

COc1ccc(N(c2ccccc2)C2CCN(C3(C)CCN(C(=O)c4c(C)ncnc4C)CC3)CC2)cc1Cl [Compound 91] showed an IC50 [1] of 0.12 nM.

Cc1ncnc(C)c1C(=O)N1CCC(C)(N2CCC(N(Cc3ccccc3)c3cccc(C(=O)NCCO)c3)CC2)CC1 [Compound 67] showed an IC50 [1] of 6 nM.

For Cc1cc(-c2cc[n+]([O-])cc2)cc(C)c1C(=O)N1CCC(C)(N2CCC(N(c3ccccc3)c3ccc(C(F)(F)F)cn3)CC2)CC1 [Compound 83], the IC50 [1] was 0.05 nM.

In the case of Cc1ncnc(C)c1C(=O)N1CCC(C)(N2CCC(N(Cc3ccccc3)c3cccc(C(=O)N4CCOCC4)c3)CC2)CC1 [Compound 62], the IC50 [1] is reported as 4 nM.

Cc1cccc(N(Cc2ccccc2)C2CCN(C3(C)CCN(C(=O)c4c(C)ncnc4C)CC3)CC2)c1 [Compound 39] was tested, and the IC50 [1] was 0.1 nM.

For CCN(CC)C(=O)c1cccc(N(Cc2ccccc2)C2CCN(C3(C)CCN(C(=O)c4c(C)ncnc4C)CC3)CC2)c1 [Compound 63], the IC50 [1] was 6 nM.

In the case of Cc1ncnc(C)c1C(=O)N1CCC(C)(N2CCC(N(Cc3ccccc3)c3cc(Cl)cc(Cl)c3)CC2)CC1 [Compound 32], the IC50 [1] is reported as 1.7 nM.

Compound Cc1ncnc(C)c1C(=O)N1CCC(C)(N2CCC(N(Cc3ccccc3)C3CCN(S(=O)(=O)c4ccccc4Cl)CC3)CC2)CC1 [Compound 5] has an IC50 [1] of 2.1 nM.

In the case of CCc1ccc(N(c2ccccc2)C2CCN(C3(C)CCN(C(=O)c4c(C)ncnc4C)CC3)CC2)cc1 [Compound 100], the IC50 [1] is reported as 0.1 nM.

COc1cccc(N(c2ccccc2)C2CCN(C3(C)CCN(C(=O)c4c(C)ncnc4C)CC3)CC2)c1 [Compound 94] gave an IC50 [1] of 1 nM.

CC(=O)NCCc1ccc(N(Cc2ccccc2)C2CCN(C3(C)CCN(C(=O)c4c(C)ncnc4C)CC3)CC2)cc1 [Compound 49] was tested, and the IC50 [1] was 0.4 nM.

With Cc1ncnc(C)c1C(=O)N1CCC(C)(N2CCC(N(Cc3ccccc3)c3cccc(OC(F)(F)F)c3)CC2)CC1 [Compound 24] the IC50 [1] was 0.2 nM.

Work on Cc1ncnc(C)c1C(=O)N1CCC(C)(N2CCC(N(Cc3ccccc3)c3ccc(CCNS(C)(=O)=O)cc3)CC2)CC1 [Compound 47] yielded an IC50 [1] of 0.05 nM.

Cc1ncnc(C)c1C(=O)N1CCC(C)(N2CCC(N(Cc3ccccc3)c3ccc(C(F)(F)F)nc3)CC2)CC1 [Compound 13] gave an IC50 [1] of 0.2 nM.

For Cc1ncnc(C)c1C(=O)N1CCC(C)(N2CCC(N(c3ccccc3)c3ccc(Cl)cn3)CC2)CC1 [Compound 78], the IC50 [1] was 1 nM.

CCCN(c1cccc2cccnc12)C1CCN(C2(C)CCN(C(=O)c3c(C)ncnc3C)CC2)CC1 [Compound 110] gave an IC50 [2] of 23 nM.

For COc1ccc(N(Cc2ccccc2)C2CCN(C3(C)CCN(C(=O)c4c(C)ncnc4C)CC3)CC2)cc1Cl [Compound 29], the IC50 [1] was 0.1 nM.

Work on Cc1ncnc(C)c1C(=O)N1CCC(C)(N2CCC(N(Cc3ccccc3)c3cc(C(F)(F)F)cc(C(F)(F)F)c3)CC2)CC1 [Compound 34] yielded an IC50 [1] of 10 nM.

Work on Cc1ncnc(C)c1C(=O)N1CCC(C)(N2CCC(N(Cc3ccccc3)c3ccc(CCN)cc3)CC2)CC1 [Compound 55] yielded an IC50 [1] of 3.5 nM.

Compound Cc1ncnc(C)c1C(=O)N1CCC(C)(N2CCC(N(Cc3ccccc3)C3CCN(S(=O)(=O)c4cccc(Cl)c4)CC3)CC2)CC1 [Compound 1] has an IC50 [1] of 0.1 nM.

Cc1ncnc(C)c1C(=O)N1CCC(C)(N2CCC(N(c3ccccc3)c3cc(F)cc(F)c3)CC2)CC1 [Compound 101] gave an IC50 [1] of 0.1 nM.

Cc1ncnc(C)c1C(=O)N1CCC(C)(N2CCC(N(Cc3ccccc3)c3cccc(C(=O)NO)c3)CC2)CC1 [Compound 64] showed an IC50 [1] of 4 nM.

With Cc1ncnc(C)c1C(=O)N1CCC(C)(N2CCC(N(Cc3ccccc3)C3CCCN(S(=O)(=O)C4CC4)C3)CC2)CC1 (stereo not shown) [Compound 112] the IC50 [2] was 30 nM.

Cc1ncnc(C)c1C(=O)N1CCC(C)(N2CCC(N(Cc3cccnc3)c3ccc(Br)cc3)CC2)CC1 [Compound 97] gave an IC50 [1] of 0.3 nM.

Cc1ncnc(C)c1C(=O)N1CCC(C)(N2CCC(N(Cc3ccccc3)c3ccc(Br)c4cccnc34)CC2)CC1 [Compound 52] gave an IC50 [1] of 1 nM.
